Assay results published in patent US9346809B2 (LEO PHARMA A/S, priority 2009, dated 2016).

Key:
Format in all cases: biochemical
[1] = target: T1, JAK2 (catalytic domain, His-tag) (Homo sapiens, UniProt O60674); experiment: JAK kinase assay (HTRF, phosphorylation of TK substrate-biotin), JAK2; conditions: HTRF assay, ATP at Km (4 μM); read-out: JAK2 kinase inhibitory activity (EC50 indicator)
T1 construct: All four purified enzymes contain only the catalytic domain; His (N); purchased Carna Biosciences, Inc; host or cells: baculovirus expression system
T1 sequence (O60674 849-1124 limits assumed): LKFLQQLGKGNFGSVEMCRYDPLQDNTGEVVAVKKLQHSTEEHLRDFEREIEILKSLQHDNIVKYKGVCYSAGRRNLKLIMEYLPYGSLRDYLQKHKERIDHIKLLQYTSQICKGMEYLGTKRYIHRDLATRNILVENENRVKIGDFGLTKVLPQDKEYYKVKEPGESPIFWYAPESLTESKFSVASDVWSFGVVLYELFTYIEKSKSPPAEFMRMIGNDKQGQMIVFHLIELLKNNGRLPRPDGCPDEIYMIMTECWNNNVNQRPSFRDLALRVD
In short: (§1)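 Compound was mixed with TK substrate-biotin (1 μM final), then kinase plus ATP at its Km was added and left 20-30 min at room temperature. Detection mix with EDTA, Streptavidin-XL665 and STK Ab Cryptate stopped the reaction; after overnight dark incubation, HTRF was read and EC50 derived.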

[2] = target: T2, TYK2 (aa 871-1187, catalytic domain, GST-tag) (Homo sapiens, UniProt P29597); experiment: JAK kinase assay (HTRF, phosphorylation of TK substrate-biotin), TYK2; conditions: HTRF assay, ATP at Km (13 μM); read-out: TYK2 kinase inhibitory activity (EC50 indicator)
T2 construct: JAK1 (aa 850-1154) and TYK2 (aa 871-1187) are expressed with an N-terminally fused GST-tag; GST (N); purchased Carna Biosciences, Inc; host or cells: baculovirus expression system
T2 sequence (P29597 871-1187): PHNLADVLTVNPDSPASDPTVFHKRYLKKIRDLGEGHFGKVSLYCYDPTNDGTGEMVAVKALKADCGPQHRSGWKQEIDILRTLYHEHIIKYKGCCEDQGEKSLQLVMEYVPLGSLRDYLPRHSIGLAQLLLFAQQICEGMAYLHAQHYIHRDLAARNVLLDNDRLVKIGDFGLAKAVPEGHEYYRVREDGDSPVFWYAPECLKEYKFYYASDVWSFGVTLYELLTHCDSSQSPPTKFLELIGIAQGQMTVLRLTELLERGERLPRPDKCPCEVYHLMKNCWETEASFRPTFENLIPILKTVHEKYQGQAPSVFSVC
In short: as §1

[3] = target: T3, JAK1 (aa 850-1154, catalytic domain, GST-tag) (Homo sapiens, UniProt P23458); experiment: JAK kinase assay (HTRF, phosphorylation of TK substrate-biotin), JAK1; conditions: HTRF assay, ATP at Km (7 μM); read-out: JAK1 kinase inhibitory activity (EC50 indicator)
T3 construct: JAK1 (aa 850-1154) and TYK2 (aa 871-1187) are expressed with an N-terminally fused GST-tag; GST (N); purchased Carna Biosciences, Inc; host or cells: baculovirus expression system
T3 sequence (P23458 850-1154): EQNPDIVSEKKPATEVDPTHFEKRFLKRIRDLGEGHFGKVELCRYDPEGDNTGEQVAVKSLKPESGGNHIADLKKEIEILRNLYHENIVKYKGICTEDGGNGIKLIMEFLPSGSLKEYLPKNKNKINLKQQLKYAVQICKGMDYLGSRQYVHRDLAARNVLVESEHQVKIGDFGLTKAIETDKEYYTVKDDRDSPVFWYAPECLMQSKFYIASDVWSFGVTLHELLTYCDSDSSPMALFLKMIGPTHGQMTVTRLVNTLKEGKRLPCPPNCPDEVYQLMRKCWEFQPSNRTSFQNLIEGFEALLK
In short: as §1

[4] = target: T4, JAK3 (catalytic domain, His-tag) (Homo sapiens, UniProt P52333); experiment: JAK kinase assay (HTRF, phosphorylation of TK substrate-biotin), JAK3; conditions: HTRF assay, ATP at Km (2 μM); read-out: JAK3 kinase inhibitory activity (EC50 indicator)
T4 construct: All four purified enzymes contain only the catalytic domain; His (N); purchased Carna Biosciences, Inc; host or cells: baculovirus expression system
T4 sequence (P52333 822-1111 limits assumed): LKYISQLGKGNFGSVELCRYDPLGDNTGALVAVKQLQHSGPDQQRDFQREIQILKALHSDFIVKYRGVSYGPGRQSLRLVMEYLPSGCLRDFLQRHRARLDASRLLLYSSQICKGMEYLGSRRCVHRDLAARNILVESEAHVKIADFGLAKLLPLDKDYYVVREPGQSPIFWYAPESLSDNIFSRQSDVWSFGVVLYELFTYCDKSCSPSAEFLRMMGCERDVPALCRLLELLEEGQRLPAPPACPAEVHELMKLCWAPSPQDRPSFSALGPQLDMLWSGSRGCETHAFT
In short: as §1

Row | EC50 [1] | EC50 [2] | EC50 [3] | EC50 [4] | Structure (SMILES)
1 | < 100 nM | < 100 nM | < 100 nM | < 100 nM | COc1csc(C(=O)N2CCN(c3ncnc4[nH]ccc34)CC23CC3)c1 [Example 386, (4-Methoxy-thiophen-2-yl)-[7-(7H-pyrrolo[2,3-d]pyrimidin-4-yl)-4,7-diaza-spiro[2.5]oct-4-yl]-methanone]
2 | < 100 nM | 100 to 500 nM | < 100 nM | < 100 nM | O=C(Cc1cc(Br)cs1)N1CCN(c2ncnc3[nH]ccc23)CC12CC2 [Example 387, 2-(4-Bromo-thiophen-2-yl)-1-[7-(7H-pyrrolo[2,3-d]pyrimidin-4-yl)-4,7-diaza-spiro[2.5]oct-4-yl]-ethanone]
3 | < 100 nM | > 500 nM | < 100 nM | < 100 nM | Cc1ccc(S(N)(=O)=O)cc1C(=O)N1CCN(c2ncnc3[nH]ccc23)CC12CC2 [Example 388, 4-Methyl-3-[7-(7H-pyrrolo[2,3-d]pyrimidin-4-yl)-4,7-diaza-spiro[2.5]octane-4-carbonyl]-benzenesulfonamide]
4 | < 100 nM | 100 to 500 nM | < 100 nM | < 100 nM | COc1cc(S(N)(=O)=O)ccc1C(=O)N1CCN(c2ncnc3[nH]ccc23)CC12CC2 [Example 389, 3-Methoxy-4-[7-(7H-pyrrolo[2,3-d]pyrimidin-4-yl)-4,7-diaza-spiro[2.5]octane-4-carbonyl]-benzenesulfonamide]
5 | < 100 nM | < 100 nM | < 100 nM | < 100 nM | COc1cc(C(=O)N2[C@@H]3CC[C@H]2CN(c2ncnc4[nH]ccc24)C3)ccc1S(N)(=O)=O [Example 390, 2-Methoxy-4-[3-(7H-pyrrolo[2,3-d]pyrimidin-4-yl)-3,8-diaza-bicyclo[3.2.1]octane-8-carbonyl]-benzenesulfonamide]
6 | 100 to 500 nM | > 500 nM | 100 to 500 nM | 100 to 500 nM | Cc1cc(S(N)(=O)=O)ccc1C(=O)N1[C@@H]2CC[C@H]1CN(c1ncnc3[nH]ccc13)C2 [Example 391, 3-Methyl-4-[3-(7H-pyrrolo[2,3-d]pyrimidin-4-yl)-3,8-diaza-bicyclo[3.2.1]octane-8-carbonyl]-benzenesulfonamide]
7 | < 100 nM | > 500 nM | < 100 nM | < 100 nM | Cc1cc(C(=O)N2[C@@H]3CC[C@H]2CN(c2ncnc4[nH]ccc24)C3)ccc1S(N)(=O)=O [Example 392, 2-Methyl-4-[3-(7H-pyrrolo[2,3-d]pyrimidin-4-yl)-3,8-diaza-bicyclo[3.2.1]octane-8-carbonyl]-benzenesulfonamide]
8 | < 100 nM | 100 to 500 nM | < 100 nM | < 100 nM | COc1cc(S(N)(=O)=O)ccc1C(=O)N1[C@@H]2CC[C@H]1CN(c1ncnc3[nH]ccc13)C2 [Example 393, 3-Methoxy-4-[3-(7H-pyrrolo[2,3-d]pyrimidin-4-yl)-3,8-diaza-bicyclo[3.2.1]octane-8-carbonyl]-benzenesulfonamide]
9 | < 100 nM | 100 to 500 nM | < 100 nM | 100 to 500 nM | O=C(c1ccc(S(=O)(=O)NCC2CCCO2)cc1)N1CCN(c2ncnc3[nH]ccc23)CC12CC2 (stereo not shown) [Example 394, 4-[7-(7H-Pyrrolo[2,3-d]pyrimidin-4-yl)-4,7-diaza-spiro[2.5]octane-4-carbonyl]-N-(tetrahydro-furan-2-ylmethyl)-benzenesulfonamide]
10 | < 100 nM | < 100 nM | < 100 nM | < 100 nM | N#CCCNS(=O)(=O)c1ccc(C(=O)N2CCN(c3ncnc4[nH]ccc34)CC23CC3)cc1 [Example 395, N-(2-Cyano-ethyl)-4-[7-(7H-pyrrolo[2,3-d]pyrimidin-4-yl)-4,7-diaza-spiro[2.5]octane-4-carbonyl]-benzenesulfonamide]
11 | < 100 nM | 100 to 500 nM | < 100 nM | < 100 nM | COCCNS(=O)(=O)c1ccc(C(=O)N2CCN(c3ncnc4[nH]ccc34)CC23CC3)cc1 [Example 396, N-(2-Methoxy-ethyl)-4-[7-(7H-pyrrolo[2,3-d]pyrimidin-4-yl)-4,7-diaza-spiro[2.5]octane-4-carbonyl]-benzenesulfonamide]
12 | < 100 nM | 100 to 500 nM | < 100 nM | 100 to 500 nM | O=C(c1ccc(S(=O)(=O)NCCc2cccs2)cc1)N1CCN(c2ncnc3[nH]ccc23)CC12CC2 [Example 397, 4-[7-(7H-Pyrrolo[2,3-d]pyrimidin-4-yl)-4,7-diaza-spiro[2.5]octane-4-carbonyl]-N-(2-thiophen-2-yl-ethyl)-benzenesulfonamide]
13 | < 100 nM | > 500 nM | < 100 nM | < 100 nM | NS(=O)(=O)c1cccc(CC(=O)N2CCN(c3ncnc4[nH]ccc34)CC23CC3)c1 [Example 398, 3-{2-Oxo-2-[7-(7H-pyrrolo[2,3-d]pyrimidin-4-yl)-4,7-diaza-spiro[2.5]oct-4-yl]-ethyl}-benzenesulfonamide]
14 | < 100 nM | < 100 nM | < 100 nM | < 100 nM | NS(=O)(=O)c1ccc(OCC(=O)N2CCN(c3ncnc4[nH]ccc34)CC23CC3)cc1 [Example 399, 4-{2-Oxo-2-[7-(7H-pyrrolo[2,3-d]pyrimidin-4-yl)-4,7-diaza-spiro[2.5]oct-4-yl]-ethoxy}-benzenesulfonamide]
15 | < 100 nM | 100 to 500 nM | < 100 nM | 100 to 500 nM | NS(=O)(=O)c1ccc(-c2ccc(C(=O)N3CCN(c4ncnc5[nH]ccc45)CC34CC4)o2)cc1 [Example 400, 4-{5-[7-(7H-Pyrrolo[2,3-d]pyrimidin-4-yl)-4,7-diaza-spiro[2.5]octane-4-carbonyl]-furan-2-yl}-benzenesulfonamide]
16 | < 100 nM | < 100 nM | < 100 nM | < 100 nM | NS(=O)(=O)c1ccc(NC(=O)C(=O)N2CCN(c3ncnc4[nH]ccc34)CC23CC3)cc1 [Example 401, 2-Oxo-2-[7-(7H-pyrrolo[2,3-d]pyrimidin-4-yl)-4,7-diaza-spiro[2.5]oct-4-yl]-N-(4-sulfamoyl-phenyl)-acetamide]
17 | < 100 nM | < 100 nM | < 100 nM | < 100 nM | NS(=O)(=O)c1c[nH]c(C(=O)N2CCN(c3ncnc4[nH]ccc34)CC23CC3)c1 [Example 402, 5-[7-(7H-Pyrrolo[2,3-d]pyrimidin-4-yl)-4,7-diaza-spiro[2.5]octane-4-carbonyl]-1H-pyrrole-3-sulfonic acid amide]
18 | < 100 nM | 100 to 500 nM | < 100 nM | 100 to 500 nM | Cc1cc(C(=O)N2CCN(c3ncnc4[nH]ccc34)CC23CC3)ccc1S(C)(=O)=O [Example 403, (4-Methanesulfonyl-3-methyl-phenyl)-[7-(7H-pyrrolo[2,3-d]pyrimidin-4-yl)-4,7-diaza-spiro[2.5]oct-4-yl]-methanone]
19 | < 100 nM | < 100 nM | < 100 nM | < 100 nM | NS(=O)(=O)c1ccc(SCC(=O)N2CCN(c3ncnc4[nH]ccc34)CC23CC3)cc1 [Example 404, 4-{2-Oxo-2-[7-(7H-pyrrolo[2,3-d]pyrimidin-4-yl)-4,7-diaza-spiro[2.5]oct-4-yl]-ethylsulfanyl}-benzenesulfonamide]
20 | < 100 nM | < 100 nM | < 100 nM | < 100 nM | NS(=O)(=O)c1ccc(C(=O)N2CCN(c3ncnc4[nH]ccc34)CC23CC3)s1 [Example 405, 5-[7-(7H-Pyrrolo[2,3-d]pyrimidin-4-yl)-4,7-diaza-spiro[2.5]octane-4-carbonyl]-thiophene-2-sulfonic acid amide]
21 | < 100 nM | 100 to 500 nM | < 100 nM | 100 to 500 nM | O=C(c1ccc(S(=O)(=O)CCO)cc1)N1CCN(c2ncnc3[nH]ccc23)CC12CC2 [Example 406, [4-(2-Hydroxy-ethanesulfonyl)-phenyl]-[7-(7H-pyrrolo[2,3-d]pyrimidin-4-yl)-4,7-diaza-spiro[2.5]oct-4-yl]-methanone]
22 | < 100 nM | > 500 nM | < 100 nM | > 500 nM | O=C(c1ccc(S(=O)(=O)C2CCCC2)cc1)N1CCN(c2ncnc3[nH]ccc23)CC12CC2 [Example 407, (4-Cyclopentanesulfonyl-phenyl)-[7-(7H-pyrrolo[2,3-d]pyrimidin-4-yl)-4,7-diaza-spiro[2.5]oct-4-yl]-methanone]
